Source: patent US20040033902A1, “Diphenyl ehter induction systemic resistance in plants” (priority 2002, published 2004)

Tests used:
[1] = tested on: snapped cotyledons of Williams variety soybean; test: Snapped cotyledon assay, isoflavone and glyceollin induction, HPLC (Example 4); type: cell-based; settings: 7 day old Williams soybean, average of two experiments; for Glyceollin Induction: 48 h, tested 10 uM to 1 mM alone and with 30 ug/ml glucan elicitor from Phytophthora sojae, concentration not given; for Total Isoflavone Induction: 48 h constant light, tested 10 uM to 1 mM, concentration of the printed value not stated, standard error less than 15%
Procedure: The snapped cotyledon assay is a minimal wound assay used to investigate the effects of test compounds in a non-primed background. The assay is performed by snapping cotyledons in two and placing the petiole side down in 0.5% water agar. Ten snapped cotyledons are used per treatment, and the subepidermal cells exposed by snapping are treated with glucan defense elicitor and/or the effector (i.e., diphenyl ether) being examined. The cotyledons are incubated in the light for 48 h as in the cut cotyledon assay. Both proximal (first cell layer) and distal (second and third cell layers) are harvested for analysis by HPLC (see below). Full details of this assay can be found in the publication: Graham, T. L. and Graham, M. Y. 1996. Signaling in soybean phenylpropanoid responses: dissection of primary, secondary and conditioning effects of light, wounding and elicitor treatments. Plant Physiol. 110:1123-1133.
The snapped cotyledon assay is “naive.” That is, it is not pre-disposed or primed for competency for the elicitation of phytoalexin glyceollin in response to the glucan elicitor. Thus, treatment with the glucan elicitor induces the formation of the isoflavones daidzein and genistein, but very little glyceollin. This is an excellent assay to study the effects of a chemical treatment on isoflavone metabolism by itself or in combination with the glucan. In the absence of the glucan, it gives an excellent picture of the effects of the compound alone on isoflavone metabolism. In the presence of the glucan, it tells us if the test compound can induce elicitation competency for the glyceollin response to the glucan.
High performance liquid chromatography (HPLC) is the method of choice for determining the levels of isoflavone defense compounds in soybean. With a single HPLC analysis, one gets a complete and quantitative profile of up to 50 or more aromatic compounds, including all the isoflavones and their conjugates and the phytoalexins, including glyceollin. As little as 20 mg of plant tissue is needed and the method can be readily applied to cotyledon, leaf or any soybean tissue. This analytical method allows us to determine the nmoles/g of each metabolite, which can then readily be processed to compare the percent increase or decrease of a given metabolite in comparison to either water or glucan-treated control tissues. Routinely, tissues are extracted in 80% ethanol and subjected to water/acetonitrile gradient elution from a C18 reverse phase HPLC column. Full details of this procedure can be found in the publication: Graham, T. L. 1991. A Rapid, High Resolution High Performance Liquid Chromatography Profiling Procedure for Plant and Microbial Aromatic Secondary Metabolites. Plant Physiol. 95:584-593. […]

[2] = tested on: cut cotyledons (Williams cotyledons); test: Cut cotyledon assay, isoflavones (Williams cotyledons); type: cell-based, soybean; settings: 50-500 uM
Procedure: The cut cotyledon assay is used to investigate both the ability of a compound (effector) to activate basal elicitation competency in plants, and to evaluate the ability of a secondary compound (elicitor) to enhance glyceollin elicitation competency in plants in which the isoflavone pools were “loaded” by the action of the effector.
The level of isoflavones in the cotyledon tissues are measured after the addition of different diphenyl ethers to determine the effectiveness of each in inducing the basal production of isoflavones in cotyledon tissues (effector studies). In the elicitor studies, the addition of diphenyl ether first “primes” the cut cotyledon. […] Thus, the ability of a compound to enhance glyceollin elicitation competency by “loading” the isoflavone pools can also be measured.
Cotyledons from 7-8 day old soybean seedlings are removed from the plant and cut on the lower surface to expose subepidermal tissues. […] Tissues are analyzed by HPLC as noted below. […]
High performance liquid chromatography (HPLC) is the method of choice for determining the levels of isoflavone defense compounds in soybean. With a single HPLC analysis, one gets a complete and quantitative profile of up to 50 or more aromatic compounds, including all the isoflavones and their conjugates and the phytoalexins, including glyceollin. […]

| SMILES | Glyceollin Induction [1] | Total Isoflavone Induction [1] | range of increase of isoflavones over the concentration range [2] |
| --- | --- | --- | --- |
| O=C(O)c1cc(Oc2ccc(C(F)(F)F)cc2Cl)ccc1[N+](=O)[O-] [Acifluorfen, acifluorfen] | +122% | +56% | – |
| CS(=O)(=O)NC(=O)c1cc(Oc2ccc(C(F)(F)F)cc2Cl)ccc1[N+](=O)[O-] [Fomesafen, fomesafen] | +233% | +85% | – |
| N[C@@H](Cc1cc(I)c(Oc2cc(I)c(O)c(I)c2)c(I)c1)C(=O)O [thyroxine] | – | – | 20-40% |
